What follows are molecules tested against T1, Mcl-1/Bim interaction, recombinant human Mcl-1 (171-327) (Homo sapiens, UniProt Q07820) (assay: Cell free Mcl-1: Bim Affinity Assay (Mcl-1 HTRF)). Details: TR-FRET, 0.1 nM Mcl-1 (171-327), 0.05 nM biotin-Bim (51-76).
T1 construct: made in house
Assay type: binding
Protocol: Cell free Mcl-1: Bim Affinity Assay (Mcl-1 HTRF)
The inhibition of the Mcl-1/Bim interaction was measured using a time-resolved fluorescence resonance energy transfer (TR-FRET) assay. […] A biotinylated peptide derived from human Bim (residues 51-76) was purchased from CPC Scientific (San Jose, CA). The TR-FRET assay was conducted in a 384-well white OptiPlatem (PerkinElmer, Waltham, MA) in a total volume of 40 μL. […] The reaction plates were further incubated overnight and then were read on an Envision® multimode reader (PerkinElmer). […] The IC50 values of test compounds were determined from duplicate data by analyzing competition curves using a four-parameter sigmoidal model in GraphPad Prism (GraphPad Software, San Diego, CA) or in Genedata Screener® (Genedata, Basel, Switzerland).

T1 sequence (Q07820 171-327): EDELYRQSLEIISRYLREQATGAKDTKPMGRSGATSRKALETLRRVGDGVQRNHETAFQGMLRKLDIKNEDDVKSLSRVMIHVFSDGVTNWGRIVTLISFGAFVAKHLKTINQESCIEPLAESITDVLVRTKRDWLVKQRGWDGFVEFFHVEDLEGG

Structure (SMILES)	IC50 [nM]
O=C1NS(=O)(=O)CCCCCC[C@@H]2CC[C@H]2CN2C[C@@]3(CCCc4cc(Cl)ccc43)COc3ccc1cc32 [Example 1084, (1S,3′R,6′R)-6-chloro-3,4-dihydro-2H,15′H-spiro[naphthalene-1,22′-[20]oxa[13]thia[1,14]diazatetracyclo[14.7.2.0^3,6.0^19,24]pentacosa[16,18,24]trien]-15′-one 13′,13′-dioxide]	13.6
C[C@@H]1CC/C=C/[C@H](OCCS(C)(=O)=O)[C@@H]2CC[C@H]2CN2C[C@@]3(CCCc4cc(Cl)ccc43)COc3ccc(cc32)C(=O)NS1(=O)=O [Example 406, (1S,3′R,6′R,7′S,8′E,12′R)-6-chloro-12′-methyl-7′-(2-(methylsulfonyl)ethoxy)-3,4-dihydro-2H,15′H-spiro[naphthalene-1,22′-[20]oxa[13]thia[1,14]diazatetracyclo[14.7.2.0^3,6.0^19,24]pentacosa [8,16,18,24]tetraen]-15′-one 13′,13′-dioxide]	0.602
CC[C@@H]1CC/C=C/[C@H](NC(=O)C(C)C)[C@@H]2CC[C@H]2CN2C[C@@]3(CCCc4cc(Cl)ccc43)COc3ccc(cc32)C(=O)NS1(=O)=O [Example 1077, N-((1S,3′R,6′R,7′S,8′E,12′R)-6-chloro-12′-ethyl-13′,13′-dioxido-15′-oxo-3,4-dihydro-2H-spiro[naphthalene-1,22′-[20]oxa[13]thia[1,14]diazatetracyclo[14.7.2.0^3,6.0^19,24]pentacosa [8,16,18,24]tetraen]-7′-yl)-2-methylpropanamide]	3.45
CC[C@@H]1CC/C=C/[C@@H](NC(C)=O)[C@@H]2CC[C@H]2CN2C[C@@]3(CCCc4cc(Cl)ccc43)COc3ccc(cc32)C(=O)NS1(=O)=O (single isomer, unassigned) [Example 1078]	0.557
CS(=O)(=O)CCO[C@@H]1/C=C/CCCS(=O)(=O)NC(=O)c2ccc3c(c2)N(C[C@@H]2CC[C@H]21)C[C@@]1(CCCc2cc(Cl)ccc21)CO3 [Example 1095, (1S,3′R,6′R,7′R,8′E)-6-chloro-7′-(2-(methylsulfonyl)ethoxy)-3,4-dihydro-2H,15′H-spiro [naphthalene-1,22′-[20]oxa[13]thia[1,14]diazatetracyclo[14.7.2.0^3,6.0^19,24]pentacosa [8,16,18,24]tetraen]-15′-one 13′,13′-dioxide]	1.29
O=C1NS(=O)(=O)C[C@@H](CO)C/C=C/[C@@H](O)[C@@H]2CC[C@H]2CN2C[C@@]3(CCCc4cc(Cl)ccc43)COc3ccc1cc32 (single isomer, unassigned) [Example 1089]	0.874
CC[C@@H]1CC/C=C/[C@H](OCC(=O)OC)[C@@H]2CC[C@H]2CN2C[C@@]3(CCCc4cc(Cl)ccc43)COc3ccc(cc32)C(=O)NS1(=O)=O [Example 991, methyl (((1S,3′R,6′R,7′S,8′E,12′R)-6-chloro-12′-ethyl-13′,13′-dioxido-15′-oxo-3,4-dihydro-2H-spiro[naphthalene-1,22′-[20]oxa[13]thia[1,14]diazatetracyclo[14.7.2.0^3,6.0^19,24]pentacosa [8,16,18,24]tetraen]-7′-yl)oxy)acetate]	0.644
CO[C@@H]1/C=C/CCS(=O)(=O)NC(=O)c2ccc3c(c2)N(C[C@@H]2CC[C@H]21)C[C@@]1(CCCc2cc(Cl)ccc21)CO3 [Example 225, (1S,3′R,6′R,7′R,8′E)-6-chloro-7′-methoxy-3,4-dihydro-2H,14′H-spiro[naphthalene-1,21′-[19]oxa[12]thia[1,13]diazatetracyclo[13.7.2.0^3,6.0^18,23]tetracosa [8,15,17,23]tetraen]-14′-one 12′,12′-dioxide]	23.1
O=C1NS(=O)(=O)C[C@H](CO)C/C=C/[C@@H](O)[C@@H]2CC[C@H]2CN2C[C@@]3(CCCc4cc(Cl)ccc43)COc3ccc1cc32 (single isomer, unassigned) [Example 1090]	2.77
CC[C@@H]1CC/C=C/[C@H](OCCO)[C@@H]2CC[C@H]2CN2C[C@@]3(CCCc4cc(Cl)ccc43)COc3ccc(cc32)C(=O)NS1(=O)=O [Example 970, (1S,3′R,6′R,7′S,8′E,12′R)-6-chloro-12′-ethyl-7′-(2-hydroxyethoxy)-3,4-dihydro-2H,15′H-spiro[naphthalene-1,22′-[20]oxa[13]thia[1,14]diazatetracyclo[14.7.2.0^3,6.0^19,24]pentacosa [8,16,18,24]tetraen]-15′-one 13′,13′-dioxide]	0.859
CN(C)C(=O)[C@@H]1CC/C=C/[C@H](O)[C@@H]2CC[C@H]2CN2C[C@@]3(CCCc4cc(Cl)ccc43)COc3ccc(cc32)C(=O)NS1(=O)=O (single isomer, unassigned) [Example 436]	0.243
CC[C@@H]1CC/C=C/[C@H](OCC(=O)OC(C)(C)C)[C@@H]2CC[C@H]2CN2C[C@@]3(CCCc4cc(Cl)ccc43)COc3ccc(cc32)C(=O)NS1(=O)=O [Example 971, tert-butyl (((1S,3′R,6′R,7′S,8′E,12′R)-6-chloro-12′-ethyl-13′,13′-dioxido-15′-oxo-3,4-dihydro-2H-spiro[naphthalene-1,22′-[20]oxa[13]thia[1,14]diazatetracyclo[14.7.2.0^3,6.0^19,24]pentacosa [8,16,18,24]tetraen]-7′-yl)oxy)acetate]	8.44
COC(=O)C1CCN(C(=O)[C@H]2CC/C=C\[C@H](O)[C@@H]3CC[C@H]3CN3C[C@@]4(CCCc5cc(Cl)ccc54)COc4ccc(cc43)C(=O)NS2(=O)=O)CC1 [Example 143]	2
CC[C@@H]1CC/C=C/[C@H](OCCC2OCCO2)[C@@H]2CC[C@H]2CN2C[C@@]3(CCCc4cc(Cl)ccc43)COc3ccc(cc32)C(=O)NS1(=O)=O [Example 968, (1S,3′R,6′R,7′S,8′E,12′R)-6-chloro-7′-(2-(1,3-dioxolan-2-yl)ethoxy)-12′-ethyl-3,4-dihydro-2H,15′H-spiro[naphthalene-1,22′-[20]oxa[13]thia[1,14]diazatetracyclo[14.7.2.0^3,6.0^19,24]pentacosa [8,16,18,24]tetraen]-15′-one 13′,13′-dioxide]	1.9
C[C@@H]1[C@H](C)/C=C/[C@H](O)[C@@H]2CC[C@H]2CN2C[C@@]3(CCCc4cc(Cl)ccc43)COc3ccc(cc32)C(=O)NS(=O)(=O)[C@H]1C (single isomer, unassigned) [Example 1044]	35.8

Same assay, conditions: cell free Mcl-1:Bim TR-FRET, recombinant human Mcl-1 (171-327)

Structure (SMILES)	IC50 [nM]
O=C1NS(=O)(=O)CC/C=C/CC[C@@H]2CC[C@H]2CN2C[C@@]3(CCCc4cc(Cl)ccc43)COc3ccc1cc32 [Example 496, (1S,3′R,6′R,9′E)-6-chloro-3,4-dihydro-2H,15′H-spiro[naphthalene-1,22′-[20]oxa[13]thia[1,14]diazatetracyclo[14.7.2.0^3,6.0^19,24]pentacosa [10,16,18,24]tetraen]-15′-one 13′,13′-dioxide]	6.33
O=C1NS(=O)(=O)C[C@H](c2ccccc2)C/C=C/[C@H](O)[C@@H]2CC[C@H]2CN2C[C@@]3(CCCc4cc(Cl)ccc43)COc3ccc1cc32 (single isomer, unassigned) [Example 704]	40.5
O=C1NS(=O)(=O)CCOC/C=C/[C@@H]2CC[C@H]2CN2C[C@@]3(CCc4cc(Cl)ccc43)COc3ccc1cc32 [Example 817, (3R,6S,7E,22S)-5′-chloro-2′,3′-dihydro-15H-spiro[10,20-dioxa-13-thia-1,14-diazatetracyclo[14.7.2.0^3,6.0^19,24]pentacosa-7,16,18,24-tetraene-22,1′-inden]-15-one 13,13-dioxide]	29.3
O=C1NS(=O)(=O)C[C@@H]2C[C@@H]2CC[C@H](O)[C@@H]2CC[C@H]2CN2C[C@@]3(CCCc4cc(Cl)ccc43)COc3ccc1cc32.O=C1NS(=O)(=O)C[C@H]2C[C@H]2CC[C@H](O)[C@@H]2CC[C@H]2CN2C[C@@]3(CCCc4cc(Cl)ccc43)COc3ccc1cc32 (mixture of isomers) [Example 787]	21.4
CC[C@@H]1/C=C/C[C@H](O)[C@@H]2CC[C@H]2CN2C[C@@]3(CCCc4cc(Cl)ccc43)COc3ccc(cc32)C(=O)NS1(=O)=O (single isomer, unassigned) [Example 766]	6.5
O=C1NS(=O)(=O)[C@H]2CCN(C2)C(=O)CC[C@@H]2CC[C@H]2CN2C[C@@]3(CCCc4cc(Cl)ccc43)COc3ccc1cc32 (single isomer, unassigned) [Example 946]	4.15
O=C1NS(=O)(=O)C/C=C/[C@H](O)CC[C@@H]2CC[C@H]2CN2C[C@@]3(CCCc4cc(Cl)ccc43)COc3ccc1cc32 (single isomer, unassigned) [Example 500]	7.08
C=C1CCCCCS(=O)(=O)NC(=O)c2ccc3c(c2)N(C[C@@H]2CC[C@@H]12)C[C@@]1(CCCc2cc(Cl)ccc21)CO3 [Example 904, (1S,3′R,6′R)-6-chloro-7′-methylidene-3,4-dihydro-2H,15′H-spiro[naphthalene-1,22′-[20]oxa[13]thia[1,14]diazatetracyclo[14.7.2.0^3,6.0^19,24]pentacosa [16,18,24]trien]-15′-one 13′,13′-dioxide]	16.2
CS(=O)(=O)N[C@@H]1CCCCCS(=O)(=O)NC(=O)c2ccc3c(c2)N(C[C@@H]2CC[C@H]21)C[C@@]1(CCCc2cc(Cl)ccc21)CO3 (single isomer, unassigned) [Example 938]	5.94
COc1ccc(C)c(NC(=O)C[C@@H]2CC/C=C/[C@H](O)[C@@H]3CC[C@H]3CN3C[C@@]4(CCCc5cc(Cl)ccc54)COc4ccc(cc43)C(=O)NS2(=O)=O)c1 (single isomer, unassigned) [Example 629]	2.3
C[C@H]1C/C=C/[C@H](O)[C@@H]2CC[C@H]2CN2C[C@@]3(CCCc4cc(Cl)ccc43)COc3ccc(cc32)C(=O)NS1(=O)=O (single isomer, unassigned) [Example 759]	3.98

Source: patent publication US12091425B2 (AMGEN INC., priority 2016, dated 2024)
